# Measured values from patent US20070129383A1, “Substituted 2-amino-[1,2,4]triazolo[1,5-a]pyrimidine derivative and use thereof” (priority 2003, published 2007).
# Tested on: MHC class I expression of T1 cell (human lymphoma line 174×CEM.)
# Assay: Effect on MHC class I expression of T1 cell (flow cytometry, MFI)
# Assay type: cell-based
# Conditions: 72 h, concentration inhibiting MHC class I molecule expression level by 20%, T1 cells, three days incubation, read-out: EC20
# Protocol: T1 cells (5.7×10^3 cells/200 μL/well) were incubated using a 96-well flat bottom microplate in RPMI1640 culture medium (Iwaki Glass Corporation) containing 10% bovine serum (hereinafter referred to as FBS; Iruvine Scientific) in the presence of a test compound of each concentration diluted from 400 μM by a common ratio of root 10 at 37° C. in an incubator containing 5% carbon dioxide concentration for three days. After incubation, cells were stained with fluoroisothiocyanate labeled mouse antihuman MHC class I monoclonal antibody (antibody produced by cell strain W6/32 (ATCC No, CRL1991). Mean fluorescence intensity (hereinafter referred to as MFI) of stained cells was measured with flow cytometry FACScan (BD), and this was assumed as MHC class I molecule expression level. Concentrations of the test compounds which inhibited the expression level of MHC class I molecule by 20% (EC20 value) were calculated from the following Expression (1), which are shown in Table 1. [formula]
row,SMILES,IC20 [µM]
1,"CNc1nc2nccc(-c3cccs3)n2n1 [Example 001, N-methyl-7-thiophene-[1,2,4]triazolo[1,5-a]pyrimidin-2-ylamine]",6
2,CC(C)(C)OC(=O)Nc1nc2nccc(-c3ccccc3)n2n1 [Example 007],6.25
3,COc1cccc(-c2ccnc3nc(NC(=O)OC(C)(C)C)nn23)c1 [Example 008],7.5
4,CC(C)(C)OC(=O)Nc1nc2nccc(-c3ccc([N+](=O)[O-])cc3)n2n1 [Example 009],7.2
5,CC(=O)C1CC(CC(=O)Nc2nc3nccc(-c4cccs4)n3n2)C1(C)C (stereo not drawn) [Example 013],8.2
6,CC(C)=CC(=O)Nc1nc2nccc(-c3cccs3)n2n1 [Example 015],9.2
7,O=C(CC1CCCC1)Nc1nc2nccc(-c3cccs3)n2n1 [Example 016],9.7
8,O=C(/C=C\Sc1ccccc1)Nc1nc2nccc(-c3cccs3)n2n1 [Example 020],5.3
9,"O=C(CCS(=O)(=O)c1ccccc1)Nc1nc2nccc(-c3cccs3)n2n1 [Example 022, 3-benzenesulfonyl-N-(7-thiophene[1,2,4]triazolo[1,5-a]pyrimidin-2-yl)propionamide]",8.2
10,O=C(Nc1nc2nccc(-c3cccs3)n2n1)C1C2CC3C(C2=O)C31 (stereo not drawn) [Example 026],8.8
11,"CC1(C)CC(=O)C=C(C(=O)Nc2nc3nccc(-c4cccs4)n3n2)O1 [Example 028, 6,6-dimethyl-4-oxo-5,6-dihydro-4H-pyran-2-carboxylic acid N-(7-thiophen-2-yl-[1,2,4]triazolo[1,5-a]pyrimidin-2-yl)amide]",7.7
12,CC(C)(C)OC(=O)NC(CSCc1ccccc1)C(=O)Nc1nc2nccc(-c3cccs3)n2n1 (stereo not drawn) [Example 036],7.1
13,CC(C)[C@H](N)C(=O)Nc1nc2nccc(-c3cccs3)n2n1 [Example 040],8.4
14,"CCC(NC(=O)OC(C)(C)C)C(=O)Nc1nc2nccc(-c3cccs3)n2n1 [Example 047, (S)-(1-(7-thiophen-2-yl-triazolo[1,5-a]-pyrimidin-2-ylcarbamoyl)propyl)carbamic acid tert-butyl ester]",7.3
15,COc1ccc(-c2ccnc3nc(NC(C)=O)nn23)cc1 [Example 052],6.8
16,"COc1cccc(-c2ccnc3nc(NC(=O)CCS(=O)(=O)c4ccccc4)nn23)c1 [Example 054, 3-benzenesulfonyl-N-(7-(3-methoxyphenyl)-[1,2,4]triazolo[1,5-a]pyrimidin-2-yl)propionamide]",4
17,O=C(CCS(=O)(=O)c1ccccc1)Nc1nc2nccc(-c3ccccc3)n2n1 [Example 055],1.6
18,"COc1ccc(-c2ccnc3nc(NC(=O)CCS(=O)(=O)c4ccccc4)nn23)cc1 [Example 056, 3-benzenesulfonyl-N-(7-(4-methoxyphenyl)-[1,2,4]triazolo[1,5-a]pyrimidin-2-yl)propionamide]",0.74
